From a melting point compilation (Tetko et al.; mined from patent text by program, amines drawn as free bases though some values may be those of a salt) come the findings set out here.

The melting point is the temperature of the solid-liquid transition. `CC(=O)n1c(=O)oc2c3ncccc3ccc21` had a melting point of 192 to 193 °C.

For the compound `COc1ccc(COC(=O)NCCc2c[nH]c3ccc(F)cc23)cc1`, the melting point is 118 to 119 °C.

Turning to `COC(=O)c1c(C(=O)OC)c(-c2ccc(F)c(F)c2)n2c1Cc1ccccc1C2`, the melting point fell in the range of 142 to 144 °C.

Take `Cc1nc(NCc2ccccc2)sc1C(=O)NCc1ccccc1`: the melting point lay within 169 to 172 °C.

As to `NC(=O)N1CCN2c3ccccc3Cn3cccc3C2C1` (stereo not given), the melting point was 175 to 177 °C.

In turn, `CCc1ccc2nc(C)c(S(=O)(=O)NC(=O)Nc3nc(OC)cc(OC)n3)n2n1` came in with a melting point of 172 to 174 °C.

`O=c1c2ncn(COCCO)c2nc2[nH]c(-c3ccc(Cl)s3)cn12` gave a melting point of 226 to 228 °C.

The compound `N#Cc1ccc(Cn2nc(-c3ccccc3O)nc2-c2ccccc2O)cc1` yielded a melting point of 147 to 149 °C.

Take `COC(=O)c1cccc(N)c1NCc1ccc(-c2ccccc2C#N)cc1`: the melting point was 110 to 111 °C.

For the compound `CO[C@@H]1C=C2C=C3C(=C(C)C(=O)N3C)C[C@]2(C)[C@@H](C)[C@H]1OC(=O)c1cccs1`, the melting point fell in the range of 148 to 153 °C.

The compound `COc1ccccc1N1CCN(CCN(CCCN2CC=C(c3c[nH]c4cc(F)ccc34)CC2)C(C)=O)CC1` registered a melting point of 75 to 77 °C.

Take `Cc1cccc(-c2cccc(CBr)n2)n1`: the melting point came out at 88 °C.

Compound `CC(/C=C/CN1CCc2cc3c(cc21)C(C)(C)CCC3(C)C)=C\C(=O)O` showed a melting point of 170 to 171 °C.

For `CNC(=NC#N)NCCCn1cc(C2=C(c3cn(C)c4ccccc34)C(=O)NC2=O)c2ccccc21`, the melting point fell in the range of 190 to 193 °C.

As for `O=C(CCl)NCCCCOc1cc(CN2CCCCC2)ccn1`, the melting point lay in the range of 59 to 63 °C.

With `CCc1nc(CC(=O)O)no1`, the melting point lay within 58 to 60 °C.

`C[C@H](O)CN1CCN(c2ccc(Nc3ncc4ccc(-c5ccccc5N(C)S(C)(=O)=O)n4n3)cc2F)CC1` returned a melting point of 165 °C.

In turn, `CNC(=O)NCCN1CCC(Nc2nc3ccccc3n2Cc2ccc(F)cc2)C1` (stereo not given) showed a melting point of 161 °C.

Compound `CCCCCCc1cc(C(=O)O)c(C)o1` registered a melting point of 59 to 60 °C.

Compound `O=C(NC=CC1OC1CCCNC(=O)c1ccc(OC(F)(F)F)cc1)c1ccc(OC(F)(F)F)cc1` (stereo not given) registered a melting point of 121 to 123 °C.

Consider `Cn1cnc2c3cccnc3n(-c3ccccc3)c(=O)c21`, for which the melting point is greater than 300 °C.

In turn, `CCCCCCCCCCCCc1ccccc1C(SCCC(=O)O)C(=O)O` (stereo not given) showed a melting point of 44 to 46 °C.

On to `COCCOCOc1c(C(C)(C)C)cc(C(=N)NN)cc1C(C)(C)C`, for which the melting point was determined as 133 °C.

The compound `CC(C)(C)OC(=O)NC(CI)c1ccc(F)cc1` (stereo not given) came in with a melting point of 138 to 139 °C.

In turn, `NCCc1cn(C(c2ccccc2)(c2ccccc2)c2ccccc2)cn1` came in with a melting point of 111 to 113 °C.

`CCOc1cc(C)ccc1C1CCN(CCCCNC(=O)c2ccc3oc(-c4ccc(Cl)cc4)cc3c2)CC1` yielded a melting point of 145 to 158 °C.

In turn, `CCCCNCP(=O)(O)O` had a melting point of 236 to 240 °C.

Compound `O=C(NC1CCN(CCCOc2ccccc2-c2nnn[nH]2)CC1)c1ccccc1` displayed a melting point of 275 to 277 °C.

On to `COc1c(C(O)CNC(C)(C)Cc2ccccc2)ccc(O)c1O` (stereo not given), for which the melting point lay in the range of 149 to 150 °C.

For `Nc1ccc(N2CCN(CCC3(Cc4ccc(F)cc4)OCCO3)CC2)nc1N`, the melting point fell in the range of 118 to 119 °C.

In the case of `CN1CCN(c2cc3c(cc2F)c(=O)c(C(=O)O)cn3C2CC2)CC1c1ccco1` (stereo not given), the melting point was 122 to 124 °C.

Compound `CC(=O)OC(C)c1ccc(-c2ccc(OCc3ccccc3)cc2)cc1` (single isomer, unassigned; (+)) yielded a melting point of 137 °C.

With `Cc1cc(I)cc(C)c1Oc1ccc([N+](=O)[O-])c(Nc2ccc(C#N)cc2)n1`, the melting point was 162 to 165 °C.

Regarding `Cc1cc(C=NO)ccc1C(=O)NCc1ccccn1`, the melting point lay in the range of 160 to 161 °C.

Regarding `COc1ccc(C2CCCCC2=O)cc1` (stereo not given), the melting point came to 90 °C.

`CCOC(=O)C1CCC2(CCN(S(=O)(=O)c3ccc(C)cc3)c3ccccc3C2)C1=O` (stereo not given) came in with a melting point of 114 to 116 °C.

Compound `c1ccc2c(OCC3CO3)c(OCC3CO3)ccc2c1` (stereo not given) had a melting point of 131 to 133 °C.

Consider `O=C(CCCCCN1CCN(c2cccc(C(F)(F)F)c2)CC1)N1Cc2ccccc2C1`, for which the melting point lay within 100 to 105 °C.

In turn, `CCc1cnc2ccnn2c1NCc1ccc(-c2ccccc2C#N)cc1` came in with a melting point of 151 to 153 °C.

Turning to `CNS(=O)(=O)c1cc(C(=O)NNC(=O)c2occ(-c3ccccc3)c2-c2ccccc2)ccc1O`, the melting point was 119 to 120 °C.

As to `O=c1ccccn1CC1(O)CCN(Cc2ccc(F)cc2)CC1`, the melting point fell in the range of 154 to 156 °C.

As for `CC(=O)c1cnn2ccccc12`, the melting point is 96 to 97 °C.

Compound `Nc1cccc(OCc2csc(-c3ccccc3)n2)c1` gave a melting point of 75 to 80 °C.

As to `CC(C)(/C=C\Cl)C(=O)Nc1ccc(Cl)cc1`, the melting point is 127 to 128 °C.

`Cc1noc(NS(=O)(=O)c2cc3ccccc3s2)c1C` gave a melting point of 157 to 160 °C.

On to `CCCNCCCC(c1ccccc1)c1ccccc1`, for which the melting point lay in the range of 94 to 96 °C.

`ON=C(Cc1ccccc1)c1ccccc1` yielded a melting point of 94 to 96 °C.

Compound `O=c1cc(-c2ccncc2)nc(-c2cccnc2)[nH]1` gave a melting point greater than 300 °C.

`COc1ccc(S(=O)(=O)Nc2cccc3c2Nc2ccc(F)c(O)c2CO3)cc1` had a melting point of 219 to 232 °C.

Regarding `CC(C)Cn1cc2c(O)nc(O)nc2n1`, the melting point is 328 to 330 °C.

Regarding `CC(C)c1ccc(-n2cc(C#N)cc2N)c(Br)c1`, the melting point was 106 °C.

`CCCCc1nc(C(O)C(C)C)c(C(N)=O)n1Cc1ccc(-c2ccccc2C(=O)O)cc1` (stereo not given) had a melting point greater than 131 °C.

On to `O=C(OCc1ccccc1)N1C[C@@H]2CN(c3ccc(N4C[C@H](CO)OC4=O)cc3)C[C@@H]2C1`, for which the melting point was 163 to 164 °C.

With `Cc1oc(-c2ccccc2)nc1COc1ccc(OCc2ccccc2)cc1`, the melting point lay in the range of 126 to 127 °C.

With `CCCCOc1c2ccccc2c(C=O)c2ccccc12`, the melting point is 65 to 67 °C.

In the case of `CC1=CC(N)=NC(c2ccccc2C(F)(F)F)N1c1n[nH]c2ccccc12` (stereo not given), the melting point lay in the range of 235 to 237 °C.

`NCCC(=O)NCCCCCNC(=O)Cc1cccc(O)c1` gave a melting point of 109 to 115 °C.

In turn, `CC1=C(C(=O)Nc2ccc(Cl)cc2)SCCS1` yielded a melting point of 115 to 117 °C.

The compound `COc1cn2nc(OCCCN3CCC(OC(c4ccccc4)c4ccccc4)CC3)ccc2n1` registered a melting point of 133 to 135 °C.

Regarding `CC(CC(=O)O)CC(=O)NCCc1ccccc1` (stereo not given), the melting point lay within 78 to 80 °C.

Compound `NCCCCCCC(=O)Nc1cccc(C(=O)NCCC(=O)O)c1` returned a melting point of 236 °C.

`CSc1cnn2c(Nc3ccc(F)c(Cl)c3)cc(Cl)nc12` displayed a melting point of 156 to 158 °C.

Compound `NCC(O)c1ccc(C(F)(F)F)cc1` (stereo not given) had a melting point of 138 to 140 °C.

Regarding `O=C(O)c1ccc(C(c2ccc(C(=O)O)c([N+](=O)[O-])c2)(C(F)(F)F)C(F)(F)F)cc1[N+](=O)[O-]`, the melting point was in the range of 235 to 238 °C.

Take `CN(C)CCCn1c(-c2ccc(Br)cc2)csc1=Nc1ccccc1`: the melting point was in the range of 110 to 111 °C.

Regarding `CC(C)CNc1nc(-c2ccccc2)cn2ccnc12`, the melting point is 81 °C.

As to `CCS(=O)(=O)c1ccc(-c2coc3ccc(-c4nnc(C)o4)cc23)cc1`, the melting point was 180 to 181 °C.

The compound `N#CC(C(=O)Nc1ccccc1)C(=O)c1nn(-c2ccccc2)c2c1CSc1ccc(NC(=O)CCC(=O)O)cc1-2` (stereo not given) displayed a melting point of 230 to 233 °C.

Consider `Cc1ccc(CC(NCc2ccc(O)cc2)c2ccccc2)cc1` (stereo not given), for which the melting point fell in the range of 129 to 130 °C.

`N#CSCCON=C(C(=O)O)c1csc(NC(c2ccccc2)(c2ccccc2)c2ccccc2)n1` returned a melting point of 194 °C.

Consider `Clc1ccc(-c2ncsc2Cn2cncn2)c(Cl)c1`, for which the melting point lay in the range of 120 to 123 °C.

`CC(=NC(C#N)=C(N)C#N)c1ccc(Cl)cc1` yielded a melting point of 154 to 156 °C.

Turning to `CC(=O)Oc1cc(OCCF)ccc1C(=O)O`, the melting point lay in the range of 126 to 127 °C.

On to `COC1C(Oc2ccc(N)cc2)OC(CO)C(OC2OC(CO)C(O)C(OC)C2O)C1O` (stereo not given), for which the melting point came out at 105 °C.

Turning to `O=[N+]([O-])c1cccc2nc[nH]c12`, the melting point lay within 242 to 245 °C.

`CN1CCN(C)C1=Nc1ccccc1N1CCOCC1` came in with a melting point of 133 to 134 °C.

`CC1Sc2c(C(=O)O)c(=O)c3cc(F)c(N4CCC(N)C4)cc3n21` (stereo not given) registered a melting point of 238 to 240 °C.

Take `CNCc1cccc(COc2nc(Cl)cnc2NS(=O)(=O)c2cccc(Cl)c2Cl)c1`: the melting point was 167 to 168 °C.

The compound `COC(=O)COc1ccc(OCCC2CCN(c3ccncc3)CC2)cc1` registered a melting point of 86 to 88 °C.

In turn, `Cc1oc(-c2ccccc2)nc1COc1ccc(C=O)cc1` returned a melting point of 103 to 105 °C.

In the case of `Cc1ccc(-n2ccc(C=O)c2)cc1`, the melting point lay within 71 to 72 °C.

The compound `CCOc1cc(/C(=C\C#N)c2ccc(NC(=O)OC)c(OC)c2)ccc1OC` displayed a melting point of 148 to 149 °C.

For `CCN(CC)c1ccc(/C=C/c2ccccc2F)cc1`, the melting point is 78 to 79 °C.

`CC(C)(C#N)c1cc(CO)cc(C(C)(C)C#N)c1` had a melting point of 151 to 153 °C.

`Nc1cccc(C(=O)N2CC3CC(CN(Cc4ccccc4)C3)C2)c1` returned a melting point of 178 °C.

In turn, `CCCCCCCCOc1cc(-c2ccccc2)c(OCC(=O)O)c(-c2ccccc2)c1` registered a melting point of 82 to 84 °C.

Turning to `CC(=O)Nc1ccc(CBr)c(C)c1C#N`, the melting point lay in the range of 152 to 153 °C.

`COc1ccc2cc(N3CCN(C4CCC(c5c[nH]c6ccc(F)cc56)CC4)CC3)ccc2c1` (stereo not given) yielded a melting point of 200 to 203 °C.

As to `COc1cc(Nc2c(C#N)cnc3cc(-c4ccc(CN5CCCCC5)s4)ccc23)c(Cl)cc1Cl`, the melting point is 155 to 160 °C.

Consider `CCCCc1nc2c(N)nc3ccc(OCc4ccccc4)cc3c2n1CCCCNC(=O)Nc1ccccc1`, for which the melting point fell in the range of 190 to 194 °C.
